Here are results for six compounds from patent US5763245A, “Method of controlling insects” (priority 1996, dated 1998).

Assay [1] concerns boll weevil larvae. Description: Boll weevil larvae bioassay (diet incorporation). Format: in vivo. To be noted: for lethal effects against boll weevil: incorporated at up to 200 &M in the standard diet. As to the method: Assays for activity against boll weevil larvae are carried out by incorporating the test sample into a agar liquid diet similar to that for southern corn rootworm [Marrone et al., 1985]. The test sample is substituted for the 20% water component. Neonate larvae are allowed to feed on the diet and mortality and growth stunting are evaluated.
Protein concentrations were determined spectrophotometrically with BCA protein reagent [Smith et al., 1985].

Assay [2] relates to fall armyworn (FAW) neonate larvae. Description: B.t. / cholesterol oxidase synergy diet assay. The format is in vivo. To be noted: 7-day; each protein 15 ppm, alone or in tandem. As to the method: (§1) Feeding assays were conducted for 7-10 days.
For assay [3], the system named is H. zea neonate larvae. Description: B.t. / cholesterol oxidase synergy diet assay. As to conditions: CO 15 ppm, alone or in tandem; for Mean Larval wgt / Stunting Observed: 7-day. Format: in vivo, Helicoverpa zea. Further details: surv.: unit not given here. As to the method:
as §1

The subject of assay [4] is black cutworm (BCW) larvae. Description: B.t. / cholesterol oxidase synergy diet assay. The format is in vivo, Agrotis ipsilon. To be noted: each protein 15 ppm, alone or in tandem.
For assay [5], the system named is black cutworm (BCW) neonate. Description: Detached leaf assay with transgenic corn. The format is in vivo, Agrotis ipsilon. As to conditions: corn leaf tissue, 3d. The source says:
A detached leaf assay was designed to evaluate biological activity of transgenic corn expressing either CryIA(b) alone or in combination with cholesterol oxidase (CO) against Agrotis ipsilon, black cutworm (BCW). In artificial diet assays, a synergistic response was observed when CO and CryIA(b) were combined.
Treatments included transgenic corn expressing either CryIA(b) alone or in combination with CO. Plant tissue from the F1 generation of two CO events crossed to a CryIA(b) event was used in this bioassay. The CO events included collosian and flushed. The CryIA(b) event was ezra. For each of the CO events by CryIA(b) cross, the CO isopopulations provide the tissue for each treatment.
CO expression was estimated to be 15 and 14 ppm for collosian and flushed, respectively. CryIA(b) expression was not quantitated. Historically, this event has reliably and consistently expressed the CryIA(b) protein at around 10 ppm.
Tissue was collected at the v6 stage from the youngest leaf of six plants for each treatment event combination. Four leaf samples (1.5×2.0 cm leaf pieces) were taken from each plant, where each piece was placed singly in a well of a 24-well microtiter plate. One neonate larva was added to each well and sealed with a mylar lidding. The assay was incubated for 3 days at 27° C. Larval weight (mg) and mortality was recorded. […] Although larval weight was less in the CryIA(b)+CO treatment for both events as compared to CryIA(b) alone (ca. 12%), the difference between the treatment means within an event was not significant.

Assay [6] concerns beet armyworm (BAW) neonate larvae. Description: B.t. / cholesterol oxidase synergy diet assay. To be noted: each protein 15 ppm, alone or in tandem; for Mean Larval wgt / Stunting Observed: 7-day. Format: in vivo. As to the method: as §1
The test system of assay [7] is Tobacco budworm (TBW) neonate larvae. Description: B.t. / cholesterol oxidase synergy diet assay. Format: in vivo. To be noted: 7-day; for surv.: n 96. As to the method:
as §1

Assay [8] concerns boll weevil or lepidopteran larvae. Description: Feeding of diet incubated with enzyme and then boiled. The format is in vivo. As to conditions: diet incubated one week with the enzyme, then boiled. The source says: While not being bound by this theory, it is believed that the 3-hydroxysteroid oxidase enzyme kills or stunts boll weevil larvae and stunts the growth of lepidopteran larvae by some action in the gut after ingestion.

Assay [9] has as its system boll weevil larvae. Description: Homogenized cotton leaf tissue assay. The format is in vivo. To be noted: six days, initial 24. As to the method: In order to test 3-hydroxysteroid oxidase against boll weevil larvae in a host tissue diet environment, a study was conducted in which cotton leaf tissue was the only nutritional component of an agar-based diet. Two cotton leaves (each approx. 5 inches wide ) with stems were homogenized at 50% C into 170 mL of a 1.6% agar solution containing 0.13% propionic acid, 0.014% phosphoric acid, and 30 mg each of streptomycin sulfate and chlortetracycline. Before addition of the leaves, 10% KOH was used to adjust the pH of the agar solution to 6.2. The leaf "diet" was allowed to cool to 40% C. Dilutions of cholesterol oxidase and a water control were incorporated into the leaf "diet", poured into insect diet trays and allowed to cool. Boll weevil eggs were added to the diet wells. The assay was evaluated six days later. […] This illustrates that the enzyme is insecticidal in the presence of intact cotton tissue and cells.

The subject of assay [10] is midguts of boll weevil larvae. Description: Midgut morphology of larvae feeding on enzyme diets. Format: in vivo. An excerpt: The enzymatic action in the gut is believed to be oxidation of the 3-hydroxysteroid(s) of the cell membranes in the lining of the gut. The effects of ingested 3-hydroxysteroid oxidase on the midguts of boll weevil larvae have been studied. The midguts of boll weevil larvae (neonate and second instar at initiation of assay) feeding on diets containing sublethal doses of 3-hydroxysteroid oxidase were dissected out. Representative midguts were immediately placed in fixative and analyzed microscopically for morphological changes. […] There was a good correlation of the morphological changes with the observed mortality over the 3-hydroxysteroid oxidase concentration range in the diet. Parallel midguts were dissected and homogenized and found to contain active 3-hydroxysteroid oxidase in enzymatic assays.

The test system of assay [11] is tobacco budworm larvae. Description: Cottonseed diet (Pharmamedia flour) test with tobacco budworm. To be noted: 100 ppm in cottonseed diet (Pharmamedia flour). Format: in vivo. As to the method:
The Southern corn rootworm diet used in the assay described above was the control. Two treatment diets were made by mixing 30 g of one of two types of cottonseed flour into 170 mL of a 1.6% agar solution at 50% C, containing 0.13% propionic acid, 0.014% phosphoric acid, and 30 mg each of streptomycin sulfate and chlortetracycline. Before mixing, 10% KOH was used to adjust the pH to 6.2. One test diet utilized raw cottonseed flour (Sigma) as the nutrient source; the other utilized Pharmamedia™ (Traders Protein), a flour made up of cottonseed embryos. The diets were incubated in a water bath at 40% C. Dilutions of the Sigma Streptomyces 3-hydroxysteroid oxidase (cholesterol oxidase) were incorporated into the diets as described above. Boll weevil larvae were allowed to feed and mortality rates were determined after six days.
In addition, tobacco budworm larvae are 68% stunted when exposed to 3-hydroxysteroid oxidase (100 ppm) in cottonseed diet (made with Pharmamedia™ flour).

Where [12] appears, read: CO 15 ppm, CryIA(c) 0.1 ppm, alone or in tandem.
Setting [13] is: CryIA(c) 0.05 ppm, alone or with CO 15 ppm.

In the case of `CC(C)CCC[C@@H](C)[C@H]1CC[C@H]2[C@@H]3CCC4=CC(=O)CC[C@]4(C)[C@H]3CC[C@]12C` [cholestenone, reference compound], the “lethal effects against boll weevil” value in assay [1] was “Nor do cholestenone or hydrogen peroxide, the products of enzymatic action on cholesterol, exhibit any lethal effects”.

For the compound `OO` [hydrogen peroxide, reference compound], the “lethal effects against boll weevil” value in assay [1] is recorded as “Nor do cholestenone or hydrogen peroxide, the products of enzymatic action on cholesterol, exhibit any lethal effects”.

Turning to “CryIA(b): Bacillus thuringiensis crystal protein, purified; in Table 24 expressed in transgenic corn event ezra”, the “Mean Larval wgt” value in [2] was 0.25 ± 0.05 mg; in assay [3] (CryIA(b) 10 ppm), 0.96 mg; in assay [4] (3rd instar, 6-day assay) it was 216 mg; in assay [4] (Neonate, 7-day assay) it was 13.64 mg. Besides, the “Obs. Mort.” value was 10% in assay [2]; 4.3% in assay [3] (7 day, CryIA(b) 10 ppm); 10% in [3] (8 day, CryIA(b) 10 ppm); 0% in assay [4] (3rd instar 6 day); 0% in assay [4] (Neonate 6 day); 2% in assay [4] (Neonate 7 day). The “Stunting Observed” value in assay [2] was determined as 99%; in assay [3] (CryIA(b) 10 ppm) it was 97%; in assay [4] (3rd instar, 6-day assay), 15%; in [4] (Neonate, 7-day assay) it was 7%. The surv. in assay [2] worked out at 80; in assay [3] (7 day, CryIA(b) 10 ppm), 90; in assay [3] (8 day, CryIA(b) 10 ppm) it was 69; in assay [4] (3rd instar 6 day) it was 32; in [4] (Neonate 6 day), 91; in [4] (Neonate 7 day), 76. Also, the “Mean Larval Weight” value is 1.11 mg in assay [5] (event collosian x ezra) and 1.27 mg in assay [5] (event flushed x ezra). In addition, the Mort. in assay [5] (event collosian x ezra) came out at 7%; in [5] (event flushed x ezra), 8%.

“CryIA(c): Bacillus thuringiensis crystal protein, purified”: in assay [6], the “Mean Larval wgt” value turned out to be 6.15 ± 0.90 mg. In addition, the “Stunting Observed” value in [6] is on record as 88%. Further, the “Obs. Mort.” value was 2% in assay [6] (7 day); 3% in assay [6] (8 day); 38% in assay [7] (setting [12]); 23% in assay [7] (setting [13]); 11% in assay [3] (7 day, CryIA(c) 15 ppm); 11% in assay [3] (10 day, CryIA(c) 15 ppm). In addition, the surv. in [6] (7 day) was 94; in [6] (8 day), 70; in assay [7] (setting [12]), 56; in [7] (setting [13]) it was 70; in [3] (7 day, CryIA(c) 15 ppm), 82; in assay [3] (10 day, CryIA(c) 15 ppm), 82.

For the compound catalase [reference compound], the “effect of added catalase on lethal effects of 3-hydroxysteroid oxidase on boll weevil” value in assay [1] (catalase added to 3-hydroxysteroid oxidase in the bioassay) is reported as “does not block the lethal effects”.

On to cholesterol oxidase, for which the “lethal or stunting effects” value in assay [8] is “no lethal or stunting effects”. For the same compound, the entries for the “Bollweevils Survivors” value in [9] (10 ppm in cotton leaf diet), in assay [9] (50 ppm in cotton leaf diet) and in assay [9] (100 ppm in cotton leaf diet) were 20, 12 and 0, respectively. Moreover, the “Mean Larval wgt” value in [6] was found to be 27.51 ± 5.52 mg; in assay [2], 42.97 ± 1.77 mg; in assay [3] (CryIA(b) 10 ppm), 24.95 mg; in assay [4] (3rd instar, 6-day assay), 197 mg; in assay [4] (Neonate, 7-day assay), 9.93 mg. The “Stunting Observed” value in assay [6] was 47%; in [2], 0%; in assay [3] (CryIA(b) 10 ppm), 27%; in assay [4] (3rd instar, 6-day assay) it was 22%; in [4] (Neonate, 7-day assay), 32%. For the same compound, the “Obs. Mort.” value in assay [6] (7 day) turned out to be 1%; in assay [6] (8 day), 3%; in assay [7] (setting [12]), 1%; in assay [2] it was 2%; in assay [3] (7 day, CryIA(b) 10 ppm), 0%; in [3] (7 day, CryIA(c) 15 ppm), 0%. For the same compound, the “Obs. Mort.” value is on record as 1% in assay [3] (8 day, CryIA(b) 10 ppm); 0% in assay [3] (10 day, CryIA(c) 15 ppm); 0% in assay [4] (3rd instar 6 day); 2% in assay [4] (Neonate 6 day); 1% in [4] (Neonate 7 day). The surv. in assay [6] (7 day) is 94; in assay [6] (8 day) it was 77; in assay [7] (setting [12]) it was 90; in assay [2] it was 90; in [3] (7 day, CryIA(b) 10 ppm), 95; in [3] (7 day, CryIA(c) 15 ppm) it was 96. For the same compound, the surv. is 87 in [3] (8 day, CryIA(b) 10 ppm); 96 in assay [3] (10 day, CryIA(c) 15 ppm); 32 in assay [4] (3rd instar 6 day); 81 in [4] (Neonate 6 day); 61 in assay [4] (Neonate 7 day). Also, the values for the midgut morphological changes entry in assay [10] (higher doses) and in [10] (larvae ingesting low doses) were “complete lysis of the cells” and “Disruption of the epithelial cell layer”, respectively. The compound further had a stunted in [11] of 68%.
